A word on the melting point: it is the temperature, or range, at which the solid turns liquid.

This is an account of results in US8557984B2, “Imidazo [4, 5-C] quinoline derivatives as bromodomain inhibitors” (GlaxoSmithKline LLC, priority 2009, dated 2013).

Data set [1] relates to IL-6. In words: Measurement of LPS Induced IL-6 Secretion from Whole Blood. The format is cell-based. Particulars: LPS 200 ng/ml, 24 hours, read-out: pIC50 (IL-6 levels) (converted). The protocol: Activation of monocytic cells by agonists of toll-like receptors such as bacterial lipopolysaccharide (LPS) results in production of key inflammatory mediators including IL-6. Such pathways are widely considered to be central to the pathophysiology of a range of auto-immune and inflammatory disorders.
Compounds to be tested are diluted to give a range of appropriate concentrations of which 1 ul of the diluted stocks is added to a 96 well plate. Following addition of whole blood (130 ul) the plates are incubated at 37 degrees (5% CO2) for 30 min before the addition of 10 ul of 2.8 ug/ml LPS, diluted in complete RPMI 1640 (final concentration=200 ng/ml), to give a total volume of 140 ul per well. After further incubation for 24 hours at 37 degrees, 140 ul of PBS are added to each well. The plates are sealed, shaken for 10 minutes and then centrifuged (2500 rpm×10 min). 100 ul of the supernatant are removed and IL-6 levels assayed by immunoassay (typically by MesoScale Discovery technology) either immediately or following storage at −20 degrees. Concentration response curves for each compound was generated from the data and an IC50 value was calculated

In data set [2] the test system is TNFα. Nature of the data set: LPS Stimulated Whole Blood Measuring TNFα Levels Assay. The conditions noted are these: LPS 200 ng/ml, 24 h, read-out: pIC50 (TNFα levels) (converted). The format is cell-based. The procedure: Activation of monocytic cells by agonists of toll-like receptors such as bacterial lipopolysaccharide (LPS) results in production of key inflammatory mediators including TNFα. Such pathways are widely considered to be central to the pathophysiology of a range of auto-immune and inflammatory disorders.
Compounds to be tested are diluted to give a range of appropriate concentrations and 1 ul of the dilution stocks is added to wells of a 96 plate. Following addition of whole blood (130 ul) the plates are incubated at 37 degrees (5% CO2) for 30 min before the addition of 10 ul of 2.8 ug/ml LPS, diluted in complete RPMI 1640 (final concentration=200 ng/ml), to give a total volume of […] per well. After further incubation for 24 h at 37 degrees, 140 ul of PBS are added to each well. The plates are sealed, shaken for 10 minutes and then centrifuged (2500 rpm×10 min). 100 ul of the supernatant are removed and TNFα levels assayed by immunoassay (typically by MesoScale Discovery technology) either immediately or following storage at −20 degrees. Dose response curves for each compound was generated from the data and an IC50 value was calculated.

Data set [3] concerns Balb/c male mice. Nature of the data set: In Vivo Mouse Endotoxemia Model. Particulars: 15 mg/kg LPS i.p., compound 10 mg/kg intravenously ninety minutes later; for Numbers of animals surviving at 4 days (summed across multiple repeat experiments): survivors/total. An excerpt:
High doses of Endotoxin (bacterial lipopolysaccharide) administered to animals produce a profound shock syndrome including a strong inflammatory response, dysregulation of cardiovascular function, organ failure and ultimately mortality. This pattern of response is very similar to human sepsis and septic shock, where the body's response to a significant bacterial infection can be similarly life threatening.
To test the compounds for use in the invention groups of eight Balb/c male mice were given a lethal dose of 15 mg/kg LPS by intraperitoneal injection. Ninety minutes later, animals were dosed intravenously with vehicle (20% cyclodextrin 1% ethanol in apyrogen water) or compound (10 mg/kg). The survival of animals was monitored at 4 days.
Numbers of animals surviving at 4 days (summed across multiple repeat experiments)

The subject of data set [4] is breast cell lines. In words: Oncology Cell Growth Assay, breast cell lines. The data set is classed as cell-based. The conditions noted are these: Homo sapiens, 72 hours, CellTiter-Glo, read-out: gIC50. The procedure: (§1) Human cell lines (n=33 comprising 15 heme cell lines, […] and 4 other cell lines) were cultured in RPMI-1640 containing 10% fetal bovine serum, 1000 viable cells per well were plated in 384-well black flat bottom polystyrene plates (Greiner #781086) in 48 μl of culture media. All plates were placed at 5% CO2, 37° C. overnight. The following day one plate was harvested with CellTiter-Glo (CTG, Promega #G7573) for a time equal to 0 (T0) measurement and compound (20 point titration from 14.7 uM to 7 pM) was added to the remaining plates. The final concentration of DMSO in all wells was 0.15%. Cells were incubated for 72 hours or the indicated time and each plate was developed with CellTiter-Glo reagent using a volume equivalent to the cell culture volume in the wells. Plates were shaken for approximately 2 minutes and chemiluminescent signal was read on the Analyst GT (Molecular Devices) or EnVision Plate Reader (Perkin Elmer).
(§2) Results were expressed as a percent of the T0 and plotted against the compound concentration. […] The Ymin-T0 value is determined by subtracting the T0 value (100%) from the Ymin value (%) determined from the fit of the concentration response curve. […]

Data set [5] deals with Human cell lines (n=33 comprising 15 heme cell lines, 14 breast cell lines and 4 other cell lines). In words: Oncology Cell Growth Assay, all cell lines. The data set is classed as cell-based. Particulars: across all cell lines, 72 hours, CellTiter-Glo, read-out: gIC50. The procedure: as §1, §2
Background: Cellular ATP, detected with luciferase, serves as a proxy for viable cell number.

For data set [6], the system named is heme cell lines. Nature of the data set: Oncology Cell Growth Assay, heme cell lines. The data set is classed as cell-based. The conditions noted are these: Homo sapiens, 72 hours, CellTiter-Glo, read-out: gIC50. The protocol:
as §1, §2

Each structure is given as a SMILES string. Where only a bound is given, the exact number is not on record here.

On to `COc1cc2c(cc1-c1c(C)noc1C)ncc1[nH]c(=O)n([C@@H](C)c3ccccn3)c12` (single isomer, unassigned) [Example 39], for which, in data set [1], the IC50 is at most 3.16 µM. With `COc1cc2c(cc1-c1c(C)noc1C)ncc1nc(C3CCOCC3)n([C@H](C)c3ccccn3)c12` (single isomer, unassigned) [Example 45], the IC50 in data set [1] is at most 3.16 µM. Regarding `COc1cc2c(cc1-c1c(C)noc1C)ncc1[nH]c(=O)n([C@H](C)c3ccccn3)c12` [Example 11, 7-(3,5-dimethyl-4-isoxazolyl)-8-(methoxy)-1-[(1R)-1-(2-pyridinyl)ethyl]-1,3-dihydro-2H-imidazo[4,5-c]quinolin-2-one], the IC50 in data set [1] is at most 3.16 µM; in data set [2] it was at most 3.16 µM; in data set [4], 0.432 to 11.1 µM; in data set [5] it was 0.118 to 11.1 µM; in data set [6], 0.118 to 1.04 µM. In addition, the “Animals surviving at 4 days, percent” value in data set [3] is 83%. In addition, the “Numbers of animals surviving at 4 days (summed across multiple repeat experiments)” value in data set [3] is given as 55/66. As for `COc1cc2c(cc1-c1c(C)noc1C)ncc1[nH]c(=O)n(-c3ccccc3OC(F)(F)F)c12` [Example 12, 7-(3,5-dimethyl-4-isoxazolyl)-8-(methoxy)-1-{2-[(trifluoromethyl)oxy]phenyl}-1,3-dihydro-2H-imidazo[4,5-c]quinolin-2-one], the IC50 in data set [2] is at most 3.16 µM. As to `COc1cc2c(cc1-c1c(C)noc1C)ncc1[nH]c(=O)n(Cc3ccccc3)c12` [Example 15], in data set [2], the IC50 is at most 3.16 µM. Turning to `Cc1noc(C)c1-c1ccc2c(c1)ncc1ncn(-c3ccccc3C(C)(C)C)c12` [Example 18, 1-[2-(tert-butyl)phenyl]-7-(3,5-dimethyl-4-isoxazolyl)-1H-imidazo[4,5-c]quinoline], the melting point turned out to be 216 °C. With `COc1cc2c(cc1-c1c(C)noc1C)ncc1nc(C3CCOCC3)n(Cc3ccccn3)c12` [Example 27, 7-(3,5-dimethyl-4-isoxazolyl)-8-(methoxy)-1-(2-pyridinylmethyl)-2-(tetrahydro-2H-pyran-4-yl)-1H-imidazo[4,5-c]quinoline], the IC50 in data set [2] was at most 3.16 µM. For `COc1cc2c(cc1-c1c(C)noc1C)ncc1nc(C3CCOCC3)n([C@H](C)c3ccccc3)c12` [Example 31, 7-(3,5-dimethyl-4-isoxazolyl)-8-(methoxy)-1-[(1R)-1-phenylethyl]-2-(tetrahydro-2H-pyran-4-yl)-1H-imidazo[4,5-c]quinoline], the IC50 in data set [2] was at most 3.16 µM. For the same molecule, in data set [3], the “Animals surviving at 4 days, percent” value was determined as 38% and the “Numbers of animals surviving at 4 days (summed across multiple repeat experiments)” value is on record as 9/24. Take `COCCn1c(=O)n([C@H](C)c2ccccn2)c2c3cc(OC)c(-c4c(C)noc4C)cc3ncc21` [Example 37, 7-(3,5-dimethyl-4-isoxazolyl)-8-(methyloxy)-3-[2-(methyloxy)ethyl]-1-[(1R)-1-(2-pyridinyl)ethyl]-1,3-dihydro-2H-imidazo[4,5-c]quinolin-2-one]: the IC50 in data set [1] was at most 3.16 µM. Turning to `COc1cc2c(cc1-c1c(C)noc1C)ncc1[nH]c(=O)n(C(C)c3cnn(C)c3)c12` (stereo not drawn) [Example 40, 7-(3,5-dimethyl-4-isoxazolyl)-8-(methyloxy)-1-[1-(1-methyl-1H-pyrazol-4-yl)ethyl]-1,3-dihydro-2H-imidazo[4,5-c]quinolin-2-one], the IC50 in data set [1] is at most 3.16 µM. On the same count and under the same terms, with `COCc1nc2cnc3cc(-c4c(C)noc4C)c(OC)cc3c2n1C(C)c1ccccn1` (stereo not drawn) [Example 51, 7-(3,5-dimethyl-4-isoxazolyl)-8-(methyloxy)-2-[(methyloxy)methyl]-1-[1-(2-pyridinyl)ethyl]-1H-imidazo[4,5-c]quinoline] the figure was at most 3.16 µM. For the molecule `COc1cc2c(cc1-c1c(C)n[nH]c1C)ncc1nc(C3CCOCC3)n([C@H](C)c3ccccc3)c12` [Example 108, 7-(3,5-dimethyl-1H-pyrazol-4-yl)-8-(methyloxy)-1-[(1R)-1-phenylethyl]-2-(tetrahydro-2H-pyran-4-yl)-1H-imidazo[4,5-c]quinoline], the IC50 in data set [2] is at most 3.16 µM. Still for that read-out and setting: the same measure for `COc1nc2c(cc1-c1c(C)noc1C)ncc1[nH]c(=O)n(-c3ccccc3OC(F)(F)F)c12` [Example 126, 7-(3,5-dimethyl-4-isoxazolyl)-8-(methyloxy)-1-{2-[(trifluoromethyl)oxy]phenyl}-1,3-dihydro-2H-imidazo[4,5-c]-1,5-naphthyridin-2-one]: at most 3.16 µM.
